Experimental data taken from patent publication US20260085034A1, “N-(BENZHYDRYL)CYCLOALKYLCARBOXAMIDE DERIVATIVES AS INHIBITORS OF GLYCOGEN SYNTHASE 1 (GYS1) AND METHODS OF USE THEREOF” (Maze Therapeutics, Inc., priority 2022, published 2026).
pIC50: −log10 of the molar value.

Biological target: T1, recombinant hGYS2/GN1 protein (Homo sapiens, UniProt P54840)
T1 sequence (P54840 1-703): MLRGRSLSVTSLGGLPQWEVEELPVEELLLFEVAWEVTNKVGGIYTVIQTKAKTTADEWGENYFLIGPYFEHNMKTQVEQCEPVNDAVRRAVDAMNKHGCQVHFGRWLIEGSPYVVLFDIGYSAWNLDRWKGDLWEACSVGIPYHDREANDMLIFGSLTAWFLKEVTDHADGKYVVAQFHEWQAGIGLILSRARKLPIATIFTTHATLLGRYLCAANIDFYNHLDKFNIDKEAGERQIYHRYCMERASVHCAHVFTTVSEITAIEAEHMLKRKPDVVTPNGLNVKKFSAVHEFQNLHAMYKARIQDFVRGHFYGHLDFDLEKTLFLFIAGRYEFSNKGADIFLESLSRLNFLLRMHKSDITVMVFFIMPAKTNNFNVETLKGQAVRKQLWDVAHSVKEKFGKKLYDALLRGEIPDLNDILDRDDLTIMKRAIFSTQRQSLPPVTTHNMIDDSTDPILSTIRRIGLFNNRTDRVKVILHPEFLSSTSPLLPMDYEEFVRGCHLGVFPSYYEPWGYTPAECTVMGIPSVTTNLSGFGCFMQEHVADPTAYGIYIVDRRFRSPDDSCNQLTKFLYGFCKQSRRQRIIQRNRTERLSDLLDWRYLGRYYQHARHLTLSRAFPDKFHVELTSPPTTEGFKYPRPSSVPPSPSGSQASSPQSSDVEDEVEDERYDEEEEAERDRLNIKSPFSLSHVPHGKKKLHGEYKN
T1 sequence (P46976 1-350 partner): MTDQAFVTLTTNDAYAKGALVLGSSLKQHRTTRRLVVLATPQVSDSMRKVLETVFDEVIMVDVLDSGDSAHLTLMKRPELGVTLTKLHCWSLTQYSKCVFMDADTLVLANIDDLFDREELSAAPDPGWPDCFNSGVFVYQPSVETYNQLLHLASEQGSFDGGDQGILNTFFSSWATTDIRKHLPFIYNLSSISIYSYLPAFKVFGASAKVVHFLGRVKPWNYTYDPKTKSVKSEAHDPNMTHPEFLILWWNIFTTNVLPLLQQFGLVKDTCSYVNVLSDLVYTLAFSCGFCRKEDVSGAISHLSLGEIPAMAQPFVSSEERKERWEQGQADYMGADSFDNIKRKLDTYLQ
Test: GYS2 coupled enzyme assay (PK/LDH)
Assay type: biochemical
Conditions: geometric mean of at least 2 assay runs; NADH absorbance at 340 nm
Procedure, shortened: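 Reaction in 50 mM Tris pH 7.5, 2 mM MgCl2, 100 mM KCl, 0.02% BSA, 1 mM TCEP, 2.5% DMSO, with 0.2% glycogen. Substrate buffer held 200 nM hGYS2/GN1, 2 mM each UDP-glucose, G6P and PEP, 0.6 mM NADH and PK/LDH, before 1:1 mixing. A340 slope over 10 min was control-normalized and Hill-fitted; IC50 = geometric mean of ≥2 runs, duplicates per run.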

Structure (SMILES): CC(C)c1ccc([C@@H](NC(=O)[C@H]2C[C@@H]2F)c2ccn[nH]2)cc1F (single isomer, unassigned) [compound 11]
- pIC50: < 4.00
